Where a SMILES comes first, the peptide text is derived from it. [ ]: non-standard residue; d: D form. NMeF = CN[C@@H](Cc1ccccc1)C(=O)O; dNMeF = CN[C@H](Cc1ccccc1)C(=O)O; NMeL = CN[C@@H](CC(C)C)C(=O)O; dNMeL = CN[C@H](CC(C)C)C(=O)O; dNMeV = CN[C@@H](C(=O)O)C(C)C; NMeA = CN[C@@H](C)C(=O)O; Nle = CCCC[C@H](N)C(=O)O; dNMeA = CN[C@H](C)C(=O)O
Conditions: Caco-2
In the case of `CC(C)C[C@@H]1NC(=O)[C@@H](CC(C)C)N(C)C(=O)[C@@H]2CCCN2C(=O)[C@H](CC(C)C)N(C)C(=O)[C@@H](C)NC(=O)[C@@H](CC(C)C)N(C)C(=O)[C@@H]2CCCN2C(=O)[C@@H](CC(C)C)N(C)C(=O)[C@H](CC(C)C)N(C)C(=O)[C@H](Cc2ccccc2)NC1=O` [Design D10.21, *LEU *DLEU PRO *DLEU DALA *LEU PRO *DLEU LEU PHE] (cyclo(F[NMeL][dNMeL]P[dNMeL][dA][NMeL]P[dNMeL]L)), the “permeability in transwell assays” value is reported as “not permeable”.

Same assay, conditions: PAMPA
Work on `CCCC[C@@H]1NC(=O)[C@@H](C)N(C)C(=O)[C@@H]2CCCN2C(=O)[C@@H](CC(C)C)NC(=O)[C@H](CC(C)C)N(C)C(=O)[C@H]2CCCN2C(=O)[C@H](CC(C)C)NC(=O)[C@@H](CC(C)C)NC(=O)[C@@H](C)NC1=O` [Design D9.28, DLEU LEU DPRO *LEU DLEU PRO *DALA MET DALA] (cyclo(L[dP][NMeL][dL]P[dNMeA][Nle][dA][dL])) yielded a PAMPA_Papp_Avg of 1.60E-06, a PAMPA_R1 of 1.84E-06 and a PAMPA_R3 of 1.41E-06.
For `CCCC[C@@H]1NC(=O)[C@H]2CCCN2C(=O)[C@@H]2CCCN2C(=O)[C@@H](C)NC(=O)[C@H]2CCCN2C(=O)[C@@H](C(C)C)NC(=O)[C@H](C(C)C)NC(=O)[C@@H](Cc2ccccc2)N(C)C(=O)[C@H](C)N(C)C1=O` [Design D9.31, PRO DPRO MET *ALA *DPHE VAL DVAL DPRO DALA] (cyclo([NMeA][dNMeF]V[dV][dP][dA]P[dP][Nle])), the PAMPA_Papp_Avg was 6.86E-08, the PAMPA_R1 was 6.96E-08 and the PAMPA_R3 was 5.29E-08.
In the case of `CC(C)C[C@@H]1NC(=O)[C@H](C(C)C)NC(=O)[C@@H](C)NC(=O)[C@H](C)NC(=O)[C@@H]2CCCN2C(=O)[C@H]2CCCN2C(=O)[C@@H](C)NC(=O)[C@H]2CCCN2C(=O)[C@@H]2CCCN2C1=O` [Design D9.34, PRO ALA DALA VAL LEU PRO DPRO DALA DPRO] (cyclo(A[dA]VLP[dP][dA][dP]P)), the PAMPA_Papp_Avg is reported as “BQL”, the PAMPA_R1 is reported as “BQL” and the PAMPA_R3 is reported as “BQL”.
With `CC(C)[C@H]1NC(=O)[C@H](C)NC(=O)[C@@H]2CCCN2C(=O)[C@H]2CCCN2C(=O)[C@@H](C(C)C)NC(=O)[C@H]2CCCN2C(=O)[C@@H](C)NC(=O)[C@@H](Cc2ccccc2)N(C)C(=O)[C@H](Cc2ccccc2)NC1=O` [Design D9.35, DPRO DVAL DPRO PRO ALA DVAL PHE *DPHE DALA] (cyclo(A[dV]F[dNMeF][dA][dP][dV][dP]P)) the PAMPA_Papp_Avg was “BQL”, the PAMPA_R1 was “BQL” and the PAMPA_R3 was “BQL”.
With `CC(C)[C@@H]1NC(=O)[C@H](C)NC(=O)[C@H]2CCCN2C(=O)[C@@H](Cc2ccccc2)NC(=O)[C@H]2CCCN2C(=O)[C@@H]2CCCN2C(=O)[C@H](Cc2ccccc2)NC(=O)[C@H](C)NC(=O)[C@H]2CCCN2C1=O` [Design D9.36, VAL DPRO ALA PHE PRO DPRO DPHE DPRO ALA] (cyclo(AFP[dP][dF][dP]AV[dP])) the PAMPA_Papp_Avg was “BQL”, the PAMPA_R1 was “BQL” and the PAMPA_R3 was “BQL”.
With `CC[C@H](C)[C@@H]1NC(=O)[C@@H](CC(C)C)NC(=O)[C@H]2CCCN2C(=O)[C@@H]2CCCN2C(=O)[C@H](C)NC(=O)[C@H]2CCCN2C(=O)[C@@H]2CCCN2C(=O)[C@H](C)NC(=O)[C@@H](C(C)C)N(C)C1=O` [Design D9.37, DPRO DLEU ILE *DVAL ALA PRO DPRO ALA PRO] (cyclo(AP[dP]AP[dP][dL]I[dNMeV])) the PAMPA_Papp_Avg was “BQL”, the PAMPA_R1 was “BQL” and the PAMPA_R3 was “BQL”.
In the case of `CC[C@@H](C)[C@H]1NC(=O)[C@H](CC(C)C)NC(=O)[C@@H](CC(C)C)NC(=O)[C@H](C(C)C)NC(=O)[C@@H]2CCCN2C(=O)[C@H](CC(C)C)N(C)C(=O)[C@@H](CC(C)C)NC(=O)[C@H](Cc2ccccc2)N(C)C(=O)[C@H]2CCCN2C1=O` [Design D9.38, DPRO *PHE DLEU *LEU PRO VAL DLEU LEU DILE] (cyclo(L[dI][dP][NMeF][dL][NMeL]PV[dL])), the PAMPA_Papp_Avg is reported as “BQL”, the PAMPA_R1 is reported as “BQL” and the PAMPA_R3 is reported as “BQL”.
Compound `CCCC[C@@H]1NC(=O)[C@H]2CCCN2C(=O)[C@H](C(C)C)NC(=O)[C@@H](CC(C)C)N(C)C(=O)[C@H](Cc2ccccc2)NC(=O)[C@H](CC(C)C)NC(=O)[C@@H](CC(C)C)N(C)C(=O)[C@@H]2CCCN2C(=O)[C@@H](CC(C)C)NC1=O` [Design D9.40, DPRO MET DLEU PRO *DLEU LEU PHE *DLEU VAL] (cyclo(F[dNMeL]V[dP][Nle][dL]P[dNMeL]L)) has a PAMPA_Papp_Avg of 2.38E-07, a PAMPA_R1 of 4.18E-07 and a PAMPA_R3 of 1.63E-07.
With `CC(C)C[C@@H]1NC(=O)[C@H](C)NC(=O)[C@H](C)NC(=O)[C@H]2CCCN2C(=O)[C@H](Cc2ccccc2)N(C)C(=O)[C@H]2CCCN2C(=O)[C@H](CC(C)C)N(C)C(=O)[C@@H](CC(C)C)N(C)C(=O)[C@H](Cc2ccccc2)NC(=O)[C@@H](CC(C)C)NC1=O` [Design D10.8, PHE *DLEU *LEU DPRO *PHE DPRO ALA ALA LEU DLEU] (cyclo(AAL[dL]F[dNMeL][NMeL][dP][NMeF][dP])) the PAMPA_Papp_Avg was “BQL”, the PAMPA_R1 was “BQL” and the PAMPA_R3 was “BQL”.
For `CC[C@H](C)[C@@H]1NC(=O)[C@H](C(C)C)NC(=O)[C@@H](CC(C)C)N(C)C(=O)[C@H](Cc2ccccc2)N(C)C(=O)[C@H]2CCCN2C(=O)[C@H](C(C)C)NC(=O)[C@@H](C)NC(=O)[C@H](CC(C)C)N(C)C(=O)[C@H]2CCCN2C(=O)[C@@H](Cc2ccccc2)NC1=O` [Design D10.9, DPRO *LEU DALA VAL DPRO *PHE *DLEU VAL ILE DPHE] (cyclo(I[dF][dP][NMeL][dA]V[dP][NMeF][dNMeL]V)), the PAMPA_Papp_Avg was “BQL”, the PAMPA_R1 was “BQL” and the PAMPA_R3 was “BQL”.
With `CC[C@@H](C)[C@H]1NC(=O)[C@H](CC(C)C)NC(=O)[C@H](CC(C)C)N(C)C(=O)[C@H]2CCCN2C(=O)[C@@H](CC(C)C)NC(=O)[C@@H]2CCCN2C(=O)[C@H](CC(C)C)N(C)C(=O)[C@@H](Cc2ccccc2)N(C)C(=O)[C@H](CC(C)C)N(C)C(=O)[C@H](CC(C)C)N(C)C1=O` [Design D10.12, *LEU LEU DILE *LEU *LEU *DPHE *LEU PRO DLEU DPRO] (cyclo(L[dI][NMeL][NMeL][dNMeF][NMeL]P[dL][dP][NMeL])) the PAMPA_Papp_Avg was “BQL”, the PAMPA_R1 was “BQL” and the PAMPA_R3 was “BQL”.
For `CC(C)C[C@@H]1NC(=O)[C@H](CC(C)C)N(C)C(=O)[C@@H](Cc2ccccc2)N(C)C(=O)[C@H](Cc2ccccc2)NC(=O)[C@@H]2CCCN2C(=O)[C@@H](C)NC(=O)[C@@H]2CCCN2C(=O)[C@H](CC(C)C)N(C)C(=O)[C@H](CC(C)C)N(C)C(=O)[C@@H](C(C)C)NC1=O` [Design D10.13, *LEU LEU DVAL *LEU *LEU PRO DALA PRO PHE *DPHE] (cyclo(F[dNMeF][NMeL]L[dV][NMeL][NMeL]P[dA]P)), the PAMPA_Papp_Avg was “BQL”, the PAMPA_R1 was “BQL” and the PAMPA_R3 was “BQL”.
For `CC(C)C[C@@H]1C(=O)N[C@H](CC(C)C)C(=O)N(C)[C@H](Cc2ccccc2)C(=O)N(C)[C@@H](CC(C)C)C(=O)N(C)[C@H](C)C(=O)N2CCC[C@H]2C(=O)N(C)[C@H](Cc2ccccc2)C(=O)N[C@@H](C(C)C)C(=O)N[C@H](CC(C)C)C(=O)N2CCC[C@H]2C(=O)N1C` [Design D10.14, *DPHE VAL DLEU PRO *DLEU DLEU *DPHE *LEU *DALA PRO] (cyclo([NMeL][dNMeA]P[dNMeF]V[dL]P[dNMeL][dL][dNMeF])), the PAMPA_Papp_Avg was “BQL”, the PAMPA_R1 was “BQL” and the PAMPA_R3 was “BQL”.
With `CC(C)C[C@@H]1NC(=O)[C@@H](CC(C)C)N(C)C(=O)[C@@H]2CCCN2C(=O)[C@H](CC(C)C)N(C)C(=O)[C@@H](C)NC(=O)[C@@H](CC(C)C)N(C)C(=O)[C@@H]2CCCN2C(=O)[C@@H](CC(C)C)N(C)C(=O)[C@H](CC(C)C)N(C)C(=O)[C@H](Cc2ccccc2)NC1=O` [Design D10.21, *LEU *DLEU PRO *DLEU DALA *LEU PRO *DLEU LEU PHE] (cyclo(F[NMeL][dNMeL]P[dNMeL][dA][NMeL]P[dNMeL]L)) the PAMPA_Papp_Avg was “BQL”, the PAMPA_R1 was “BQL” and the PAMPA_R3 was “BQL”.

Source: publication PMC9490236, “Accurate de novo design of membrane-traversing macrocycles” (Cell, 2022)
